In PMC9234956 (Journal of Medicinal Chemistry, 2022):
Positions count from the first letter of the chain named. Where a name gives a salt, the structure may show the parent alone. Read-outs that look alike come from different tables or passages of the source. Marks after values point to notes of the source that are not given here.

How the values were obtained:
human GLP-1R [1] = biological target: T1, human GLP-1R (Homo sapiens, UniProt P43220); test: βArr1 recruitment, DiscoverX PathHunter cell line, buffer with 0.1% BSA; type: cell-based; settings: buffer containing 0.1% BSA
T1 sequence (P43220 24-463): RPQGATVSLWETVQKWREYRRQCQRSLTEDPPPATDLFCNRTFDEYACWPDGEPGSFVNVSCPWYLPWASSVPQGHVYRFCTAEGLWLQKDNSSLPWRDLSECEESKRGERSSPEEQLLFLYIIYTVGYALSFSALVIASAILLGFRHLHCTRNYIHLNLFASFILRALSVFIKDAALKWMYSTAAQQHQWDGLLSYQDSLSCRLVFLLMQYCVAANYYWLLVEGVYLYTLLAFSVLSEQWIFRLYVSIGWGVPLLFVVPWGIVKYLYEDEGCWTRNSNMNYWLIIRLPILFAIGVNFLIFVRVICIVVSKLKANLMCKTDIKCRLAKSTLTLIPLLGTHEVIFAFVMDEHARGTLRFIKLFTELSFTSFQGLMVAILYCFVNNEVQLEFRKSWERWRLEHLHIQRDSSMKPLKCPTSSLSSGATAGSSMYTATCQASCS

human GLP-1R [2] = biological target: T1, human GLP-1R; test: βArr2 recruitment, DiscoverX PathHunter cell line, buffer with 0.1% BSA; type: cell-based; settings: for βArr2 slope: buffer containing 0.1% BSA
human GLP-1R [3] = biological target: T1, human GLP-1R; settings: for SA cAMP – BETP slope: slope of concentration-response curve
human GLP-1R [4] = biological target: T1, human GLP-1R
human GLP-1R [5] = biological target: T1, human GLP-1R; test: cAMP assay in candidate selection; settings: for CS cAMP slope: slope of concentration-response curve
human GLP-1R [6] = biological target: T1, human GLP-1R; test: BETP-sensitized cAMP screening assay; type: cell-based; settings: for SA cAMP + BETP slope: slope of concentration-response curve
[7] = Intrinsic metabolic clearance in human liver microsomes; type: in vitro ADME; settings: scaled from in vitro half-life; for CLint scaled: human, liver microsomes, HLM CLint
human GLP-1R [8] = biological target: T1, human GLP-1R; settings: assay medium
[9] = Intrinsic metabolic clearance in cryopreserved human hepatocytes; type: in vitro ADME
[10] = rat, Tris salt, fasted
[11] = monkey, 5.0 mg/kg po, Tris salt, fasted
rat GLP-1R = biological target: T2, rat GLP-1R (Rattus norvegicus, UniProt P32301); test: cAMP accumulation, CHO cells expressing rat GLP-1R; type: cell-based
T2 sequence (P32301 22-463): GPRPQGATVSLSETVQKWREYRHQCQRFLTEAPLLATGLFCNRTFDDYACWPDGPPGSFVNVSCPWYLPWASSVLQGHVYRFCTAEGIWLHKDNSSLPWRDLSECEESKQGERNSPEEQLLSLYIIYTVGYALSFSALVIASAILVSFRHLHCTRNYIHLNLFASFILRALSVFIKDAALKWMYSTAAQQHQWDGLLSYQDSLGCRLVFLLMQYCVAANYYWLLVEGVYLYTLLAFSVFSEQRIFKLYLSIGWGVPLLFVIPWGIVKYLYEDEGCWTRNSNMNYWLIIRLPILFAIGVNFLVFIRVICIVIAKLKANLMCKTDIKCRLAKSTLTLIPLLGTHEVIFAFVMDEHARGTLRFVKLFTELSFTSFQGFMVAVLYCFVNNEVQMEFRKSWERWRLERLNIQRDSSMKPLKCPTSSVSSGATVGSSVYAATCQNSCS

rabbit GLP-1R = biological target: T3, rabbit GLP-1R (Oryctolagus cuniculus, UniProt G1SGD4); test: cAMP accumulation, CHO cells expressing rabbit GLP-1R; type: cell-based
T3 sequence (G1SGD4 24-462): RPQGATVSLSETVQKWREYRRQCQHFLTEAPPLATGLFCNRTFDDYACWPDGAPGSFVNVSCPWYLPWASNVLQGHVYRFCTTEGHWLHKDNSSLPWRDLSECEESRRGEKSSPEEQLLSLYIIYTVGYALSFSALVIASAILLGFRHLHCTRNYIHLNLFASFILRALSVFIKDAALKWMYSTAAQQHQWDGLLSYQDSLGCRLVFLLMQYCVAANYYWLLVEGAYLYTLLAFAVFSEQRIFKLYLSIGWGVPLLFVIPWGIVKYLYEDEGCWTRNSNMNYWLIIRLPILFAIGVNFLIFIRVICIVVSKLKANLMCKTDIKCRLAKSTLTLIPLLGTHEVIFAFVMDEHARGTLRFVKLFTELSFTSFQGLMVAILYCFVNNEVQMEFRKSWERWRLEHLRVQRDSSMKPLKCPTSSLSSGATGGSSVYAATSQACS

mouse GLP-1R = biological target: T4, mouse GLP-1R (Mus musculus, UniProt O35659); test: cAMP accumulation, CHO cells expressing mouse GLP-1R; type: cell-based
T4 sequence (O35659 22-463): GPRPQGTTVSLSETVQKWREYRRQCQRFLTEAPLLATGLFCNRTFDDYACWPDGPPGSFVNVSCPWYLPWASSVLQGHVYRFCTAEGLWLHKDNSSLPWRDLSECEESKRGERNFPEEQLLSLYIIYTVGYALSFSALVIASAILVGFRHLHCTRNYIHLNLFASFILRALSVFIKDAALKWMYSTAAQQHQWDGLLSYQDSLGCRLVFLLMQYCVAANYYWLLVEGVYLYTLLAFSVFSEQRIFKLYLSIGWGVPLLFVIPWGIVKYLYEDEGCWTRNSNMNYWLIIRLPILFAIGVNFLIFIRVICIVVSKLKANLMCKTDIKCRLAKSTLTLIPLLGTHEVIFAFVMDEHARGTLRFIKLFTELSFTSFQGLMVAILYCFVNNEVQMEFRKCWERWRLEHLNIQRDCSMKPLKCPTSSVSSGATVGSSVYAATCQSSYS

cynomolgus monkeys [12] = test: Cynomolgus monkey food intake; type: in vivo; settings: 2.9 mg/kg subcutaneous once daily for 2 days
GFP-tagged human GLP-1R = GFP-tagged human GLP-1R (Homo sapiens, UniProt P43220); test: Confocal microscopy of GFP-tagged human GLP-1R in HEK 293 cells; type: cell-based; settings: stimulation for 30 min; reversible following a 2 h washout
Sequence of GFP-tagged human GLP-1R (P43220 24-463): as the sequence (P43220 24-463) above

human GLP-1R [13] = biological target: T1, human GLP-1R; remark: listed apart in the source
mouse GLP-1R S33W = biological target: T5, mouse GLP-1R S33W (Mus musculus, UniProt O35659, S33W)
T5 sequence (O35659 22-463 S33W): T4 sequence (O35659 22-463) with S12W

[14] = single oral doses 3–300 mg, fasted
human GLP-1R [15] = biological target: T1, human GLP-1R; settings: relative to liraglutide; HEK 293 FAP-GLP1R
in vivo [16] = settings: male, Wistar-Han, rat, plasma, iv, 1 mg/kg
in vivo [17] = settings: male, cynomolgus monkey, plasma, iv, 1 mg/kg
cynomolgus monkeys [18] = test: Intravenous glucose tolerance test; settings: iv infusion
human GLP-1R W33S = human GLP-1R W33S (Homo sapiens, UniProt P43220, W33S); test: cAMP, functional assessment of GLP-1R mutants: human W33S
Sequence of human GLP-1R W33S (P43220 24-463 W33S): as the sequence (P43220 24-463) above, with W10S counted along it

[19] = system: healthy adult participants; test: Phase 1 first-in-human single ascending dose study: safety

## CCn1cncc1Cn1c(CN2CCC(c3cccc(OCc4ccc(F)cc4F)n3)CC2)nc2ccc(C(=O)O)cc21 [PF-06883365]
Human GLP-1R [1]
  βArr1 slope: 0.94 ± 0.013
Human GLP-1R [2]
  βArr2 slope: 0.79 ± 0.12
Human GLP-1R [3]
  SA cAMP – BETP slope: 0.98 ± 0.12
Human GLP-1R [4]
  [3H]PF-06883365 binding slope: 1.0 ± 0.15
Human GLP-1R [5]
  CS cAMP slope: 1.1 ± 0.19

## Cn1c(CN2CCC(c3cccc(OCc4ccc(Cl)cc4F)n3)CC2)nc2nccc(NCC(=O)O)c21 [compound 4]
Human GLP-1R [6]
  SA cAMP + BETP slope: 0.76 ± 0.058
[7]
  CLint scaled: < 0.66 L/h/kg
Human GLP-1R [3]
  SA cAMP – BETP slope: 0.75 ± 0.18
Human GLP-1R [8]
  βArr2 + BETP slope: 0.93 (0.98, 0.88)

## Cn1c(CN2CCC(c3cccc(OCc4ccc(Cl)cc4F)n3)CC2)nc2ccc(C(=O)O)nc21 [compound 5]
Human GLP-1R [6]
  SA cAMP + BETP slope: 0.97 ± 0.15
[7]
  CLint scaled: 1.74 ± 0.264 L/h/kg
Human GLP-1R [3]
  SA cAMP – BETP slope: 1.1 ± 0.17
Human GLP-1R [8]
  βArr2 + BETP slope: 0.69 ± 0.13
Human GLP-1R [5]
  agonist character in CS cAMP assay: full agonist
  CS cAMP slope: 1 ± 0.14
Human GLP-1R [5]; CS vs SA cAMP EC50
  fold less potent in CS cell line than in SA: ~20 fold

## Cn1c(CN2CCC(c3cccc(OCc4ccc(Cl)cc4F)n3)CC2)nc2ccncc21 [compound 3]
Human GLP-1R [6]; SA + BETP EC50
  fold more potent than HTS hit 2: > 100 fold
Human GLP-1R [6]
  SA cAMP + BETP slope: 0.89 ± 0.17
[7]
  CLint scaled: 7.8 L/h/kg
  HLM CLint: 140 ± 46 (n = 3) mL/min/kg
[9]
  hHEP CLint: 55 (n = 1) μL/min/million
Human GLP-1R [3]
  SA cAMP – BETP slope: 1.2 ± 0.26
Human GLP-1R [8]
  βArr2 + BETP slope: 0.97 ± 0.10

## N#Cc1ccc(COc2cccc(C3CCN(Cc4nc5ccc(C(=O)O)cc5n4C[C@@H]4CCO4)CC3)n2)c(F)c1 [Danuglipron, Tris salt, (S)-2-[(4-{6-[(4-Cyano-2-fluorobenzyl)oxy]pyridin-2-yl}piperidin-1-yl)methyl]-1-(oxetan-2-ylmethyl)-1H-benzo[d]imidazole-6-carboxylic Acid]
[10]; 5.0 mg/kg po
  oral F: 11 (10, 12) %
[10]; 100 mg/kg po
  oral F: 39 (37, 44) %
[11]
  oral F: 5.0 (4.0, 6.0) %

## N#Cc1ccc(COc2cccc(C3CCN(Cc4nc5ccc(C(=O)O)cc5n4C[C@@H]4CCO4)CC3)n2)c(F)c1 [danuglipron, (S)-2-[(4-{6-[(4-Cyano-2-fluorobenzyl)oxy]pyridin-2-yl}piperidin-1-yl)methyl]-1-(oxetan-2-ylmethyl)-1H-benzo[d]imidazole-6-carboxylic Acid]
Human GLP-1R [6]
  SA cAMP + BETP slope: 0.98 ± 0.029
Human GLP-1R [1]
  βArr1 slope: 0.90 ± 0.067
Human GLP-1R [2]
  agonist character in βArr2 recruitment: partial agonist
  βArr2 slope: 1 ± 0.18
Rat GLP-1R
  effect on cAMP levels: did not increase cAMP levels
Rabbit GLP-1R
  effect on cAMP levels: did not increase cAMP levels
Mouse GLP-1R
  effect on cAMP levels: did not increase cAMP levels
Cynomolgus monkeys [12]
  food intake versus vehicle: inhibited food intake
GFP-tagged human GLP-1R
  intracellular accumulation of GFP-GLP-1R: marked intracellular accumulation of the GFP-GLP-1R
Human GLP-1R [3]
  SA cAMP – BETP slope: 1.1 ± 0.11
Human GLP-1R [13]
  [125I]GLP-1 binding slope: 0.70 ± 0.099
Human GLP-1R [4]
  [3H]PF-06883365 binding slope: 1 ^b
Mouse GLP-1R S33W
  cAMP signaling at mouse GLP-1R S33W: increased the level of accumulation of cAMP
Mouse GLP-1R S33W; listed as Danuglipron
  cAMP signaling at mouse GLP-1R S33W: restored
[14]
  increase of plasma exposure (Cmax, AUCinf) with dose: approximately dose-proportional
Human GLP-1R [15]
  Bias factor (toward cAMP), cAMP vs Internalization: 3.6
In vivo [16]
  clearance at 24 h: 3.44 ± 0.521 L/h/kg
  half-life: 1.1 h
In vivo [17]
  clearance at 24 h: 0.828 L/h/kg
  half-life: 1.9 h
Cynomolgus monkeys [18]
  insulin secretion during IVGTT: increase in the rate of insulin secretion
  rate of glucose disappearance (K value) during IVGTT: increased the rate of glucose disappearance
Cynomolgus monkeys [18]; listed as Danuglipron
  insulin secretion during IVGTT: enhanced insulin secretion
Human GLP-1R W33S
  cAMP signaling at human GLP-1R W33S: failed to induce signaling
Human GLP-1R W33S; listed as Danuglipron
  cAMP signaling at human GLP-1R W33S: negated
[19]; after single doses, healthy participants
  post-dose fasting serum glucose levels: remained within the normal reference range
[19]; single doses 3 to 300 mg, healthy adults
  tolerability after po administration under fasted conditions: generally well tolerated
Human GLP-1R [5]
  agonist character in CS cAMP assay: full agonist
  CS cAMP slope: 1.1 ± 0.14

## Cn1c(CN2CCC(c3nc(OCc4ccc(Cl)cc4F)ncc3F)CC2)nc2ccccc21 [compound 2]
Human GLP-1R [6]
  SA cAMP + BETP slope: 1.3 ± 0.75
[7]
  CLint scaled: > 9 L/h/kg
[9]
  hHEP CLint: 48 (n = 1) μL/min/million
Human GLP-1R [3]; without BETP
  GLP-1R agonist activity in the unpotentiated cAMP SA: inactive
